Measurements as given in patent US20090130707A1, “Methods of reducing the inhibitory effect of a redox active metal ion on the enzymatic hydrolysis of cellulosic material” (priority 2007, published 2009).
“Also recorded” adds a separate entry of the source.

Key:
[1] = tested on: Cellulolytic Enzyme Composition #1; assay: mini-plate-scale PASC hydrolysis by Cellulolytic Enzyme Composition #1; type: biochemical, Trichoderma reesei
Experimental: Various (biologically common) divalent metal cations with variable ionic radii were tested in 2.8 ml Deep Well Microplates (VWR International, West Chester, Pa., USA) (“mini-plate-scale”) containing 1 ml suspensions of 25 g of AVICEL® per liter in 50 mM sodium acetate pH 5 at 50° C. Cellulolytic Enzyme Composition #1 was added at 0.25 g per liter for each hydrolysis. The mini-plates were sealed at 160° C. for 2 seconds using an ABGENE® ALPS 300™ sealer (ABgene, Rochester, N.Y., USA). The sealed mini-plates were incubated at 50° C. in an INNOVA® 4080 incubator shaker at 150 rpm. Soluble reducing sugars were measured by HPLC as described in Example 30.
In one series of “mini-scale” hydrolysis reactions performed according to the procedure described in Example 30, the effect of 1 mM to 10 mM FeSO4 was evaluated in the hydrolysis of AVICEL® by Cellulolytic Enzyme Composition #1. In a series of “mini-plate-scale” hydrolysis reactions performed according to the procedure described in Example 32, the effect of 1 mM to 10 mM FeSO4 was evaluated in the hydrolysis of PASC by Cellulolytic Enzyme Composition #1, except 2 g of PASC and 0.05 g Cellulolytic Enzyme Composition #1 per liter of 50 mM sodium acetate pH 5 were used.
The above study was extended to a range of concentration of Fe(II) and cellulose. In a series of “mini-plate-scale” hydrolysis reactions performed according to the procedure described in Example 32, except that 0.1 to 10 mM FeSO4, 0.6 to 4 g of PASC and 0.01 g of Cellulolytic Enzyme Composition #1 per liter of 50 mM sodium acetate pH 5 were used.

[2] = tested on: Cellulolytic Enzyme Composition #2; assay: mini-scale PCS hydrolysis by Cellulolytic Enzyme Composition #2; type: biochemical, Trichoderma reesei
Experimental: Corn stover was pretreated at the U.S. Department of Energy National Renewable Energy Laboratory (NREL), […], Colo., USA, using dilute sulfuric acid. The following conditions were used for the pretreatment: 1.4 wt % sulfuric acid at 195° C. for 4.5 minutes. According to limit digestion with excess cellulase enzymes, the water-insoluble solids in the pretreated corn stover (PCS) contained 59.5% cellulose. Prior to use, the PCS was washed with a large volume of deionized water until soluble acid and sugars were removed. The dry weight of the water-washed PCS was 19.16%.
The effect of various salts (FeSO4, FeCl2, NaCl, Na2SO4, MnSO4, MnCl2) was determined in the hydrolysis of PCS by Cellulolytic Enzyme Composition #2. […] Cellulolytic Enzyme Composition #2 was added at 0.25 g per liter. Reactions without the addition of the salt served as controls. The capped tubes were incubated at 50° C. in an INNOVA® 4080 incubator shaker (New Brunswick Scientific Co., Inc., Edison, N.J., USA) at 150 rpm.
Aliquots of the suspensions, sampled over time, were filtered by centrifugation using a 0.45 μm MULTISCREEN® HV membrane (Millipore, Billerica, Mass., USA) at 2000 rpm for 15 minutes using a SORVALL® RT7 centrifuge (Thermo Fisher Scientific, Waltham, Mass., USA). When not used immediately, the filtered sugary aliquots were frozen at −20° C. Sugar concentrations of the samples diluted in 0.005 M H2SO4 were measured after elution from a 4.6×250 mm AMINEX® HPX-87H column (Bio-Rad, Hercules, Calif., USA) by 0.005 M H2SO4 at a flow rate of 0.4 ml/minute at 65° C. with quantitation by integration of glucose and cellobiose using refractive index detection (CHEMSTATION®, AGILENT® 1100 HPLC, Agilent Technologies, Santa Clara, Calif., USA) calibrated with standards of glucose and cellobiose. The resultant equivalents were used to calculate the percentage of cellulose conversion for each reaction.
The degree of cellulose conversion to glucose plus cellobiose (% conversion) was calculated using the following equation:
% Conversion=(glucose+cellobiose×1.053)(mg/ml)×100×162/cellulose(mg/ml)×180)=(glucose+cellobiose×1.053)(mg/ml)×100/(cellulose(mg/ml)×1.111)
In this equation the factor 1.111 reflects the weight gain in converting cellulose to glucose, and the factor 1.053 reflects the weight gain in converting cellobiose to glucose. Cellulose in PCS was determined by a limit digest of PCS to release glucose and cellobiose.

## Ferrous sulfate [FeSO4]
[1]; 1 mM to 10 mM FeSO4, PASC (FIG. 19C)
  Concentration dependence of inhibition: increasingly inhibitory
[1]; 0.1 to 10 mM FeSO4, 0.6 to 4 g PASC, 0.01 g enzyme per liter
  Type of inhibition (double-reciprocal plots): mix-type inhibition
[1]; on PASC, 2 g PASC and 0.05 g enzyme per liter, read-out: Ki (x-intercept of Dixon plot)
  Ki: ~14 mM
[2]; 10 mM salt, 43.4 g PCS and 0.25 g enzyme per liter, 50 mM sodium acetate pH 5, 50° C.
  Effect on PCS hydrolysis: significant inhibition; also recorded: significantly inhibited
[2]; 0.1 and 1 mM
  Effect on the cellulases: did not significantly affect
